Legend:
Format in all cases: biochemical
[1] = target: FXa (Homo sapiens, UniProt P00742); test: Related protease inhibition: FXa, fluorogenic substrate; conditions: fluorogenic substrate at Km, 25° C., H1-H3 = % activity at 40 μM; for activity at 40 µM: read-out: IC50 (human FXa) nM
Method: (§1) Human serine protease enzyme Plasma Kallikrein, KLK1, FXa, Plasmin, Thrombin and Trypsin were assayed for enzymatic activity using an appropriate fluorogenic substrate at Km concentration, FXIa at fixed substrate concentration of 100 μM and various concentrations of the test compound.

[2] = target: T1, Human Factor XIIa (hFXIIa) (Homo sapiens, UniProt P00748); test: Determination of Human Factor XIIa (hFXIIa) inhibition, fluorogenic substrate IC50 assay; conditions: fluorogenic substrate H-DPro-Phe-Arg-AFC at Km, 25° C., read-out: Human FXIIa IC50
T1 construct: purchased Enzyme Research Laboratories
T1 sequence (P00748 373-615 limits assumed): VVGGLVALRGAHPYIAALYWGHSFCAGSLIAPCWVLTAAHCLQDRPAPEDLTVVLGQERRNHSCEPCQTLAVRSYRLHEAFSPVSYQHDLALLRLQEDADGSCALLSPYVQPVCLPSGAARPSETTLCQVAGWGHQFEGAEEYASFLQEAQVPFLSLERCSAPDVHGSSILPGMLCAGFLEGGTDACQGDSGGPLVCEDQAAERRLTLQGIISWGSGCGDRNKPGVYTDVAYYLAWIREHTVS
T1 sequence (P00748 20-372 partner limits assumed): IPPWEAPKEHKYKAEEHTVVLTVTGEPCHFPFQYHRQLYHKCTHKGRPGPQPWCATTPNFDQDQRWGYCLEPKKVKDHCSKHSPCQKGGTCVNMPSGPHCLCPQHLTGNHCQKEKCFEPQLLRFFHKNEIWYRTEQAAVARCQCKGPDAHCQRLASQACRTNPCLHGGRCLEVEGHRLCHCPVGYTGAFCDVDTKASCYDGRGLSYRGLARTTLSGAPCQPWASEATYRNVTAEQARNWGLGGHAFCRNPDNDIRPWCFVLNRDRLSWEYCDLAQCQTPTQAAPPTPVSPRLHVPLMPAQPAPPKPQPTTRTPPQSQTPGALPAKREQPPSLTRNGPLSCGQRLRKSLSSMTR
Method: Determination of Human Factor XIIa (hFXIIa) inhibition
The Km for the cleavage of the substrate by hFXIIa was determined by standard transformation of the Michaelis-Menten equation, with subsequent inhibition assays performed at substrate Km concentration.

[3] = target: Thrombin (Homo sapiens, UniProt P00734); test: Related protease inhibition: Thrombin, fluorogenic substrate; conditions: fluorogenic substrate at Km, 25° C., H1-H3 = % activity at 40 μM; for activity at 40 µM: read-out: IC50 (human thrombin) nM
Method: as §1

FXa, sequence (P00742 235-488 limits assumed): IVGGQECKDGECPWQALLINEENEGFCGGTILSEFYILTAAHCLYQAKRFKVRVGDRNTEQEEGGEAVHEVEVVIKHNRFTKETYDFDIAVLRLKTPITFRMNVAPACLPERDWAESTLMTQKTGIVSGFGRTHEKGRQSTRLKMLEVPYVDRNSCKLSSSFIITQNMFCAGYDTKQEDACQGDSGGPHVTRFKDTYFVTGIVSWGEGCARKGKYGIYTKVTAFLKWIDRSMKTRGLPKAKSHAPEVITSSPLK
FXa, sequence (P00742 41-179 partner limits assumed): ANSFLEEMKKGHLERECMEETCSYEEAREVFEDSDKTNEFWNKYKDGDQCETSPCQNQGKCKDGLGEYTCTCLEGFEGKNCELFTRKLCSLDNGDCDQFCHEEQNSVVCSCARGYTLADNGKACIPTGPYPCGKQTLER

SMILES | activity at 40 µM [1] [%] | IC50 [2] [nM] | activity at 40 µM [3] [%] | IC50 [1] [nM] | IC50 [3] [nM]
CN1CCc2ccc(N3CCc4c(C(=O)NCC5(N)CC5)nn(-c5cccc(Cl)c5)c4C3=O)cc2C1=O [Example 1427, N-((1-aminocyclopropyl)methyl)-1-(3-chlorophenyl)-6-(2-methyl-1-oxo-1,2,3,4-tetrahydroisoquinolin-7-yl)-7-oxo-4,5,6,7-tetrahydro-1H-pyrazolo[3,4-c]pyridine-3-carboxamide] | > 80 | 300 to 1000 | > 80 |  | 
CCNC(=O)c1nn(-c2cccc(Cl)c2)c2c1CCN(c1cccc(N3CCC4(CC4)C3)c1)C2=O [Example 1430, 6-(3-(5-azaspiro[2.4]heptan-5-yl)phenyl)-1-(3-chlorophenyl)-N-ethyl-7-oxo-4,5,6,7-tetrahydro-1H-pyrazolo[3,4-c]pyridine-3-carboxamide] | > 80 | 3000 to 10000 | > 80 |  | 
CN1CCc2ccc(N3CCc4c(C(=O)NC5CNCC5(F)F)nn(-c5cccc(Cl)c5)c4C3=O)cc2C1=O (stereo not drawn) [Example 1425, 1-(3-chlorophenyl)-N-(4,4-difluoropyrrolidin-3-yl)-6-(2-methyl-1-oxo-1,2,3,4-tetrahydroisoquinolin-7-yl)-7-oxo-4,5,6,7-tetrahydro-1H-pyrazolo[3,4-c]pyridine-3-carboxamide] | > 80 | 300 to 1000 | > 80 |  | 
CCNC(=O)c1nn(-c2cccc(Cl)c2)c2c1CCN(c1ccc3c(c1)NCCO3)C2=O [Example 1422, 1-(3-chlorophenyl)-6-(3,4-dihydro-2H-benzo[b][1,4]oxazin-6-yl)-N-ethyl-7-oxo-4,5,6,7-tetrahydro-1H-pyrazolo[3,4-c]pyridine-3-carboxamide] | 20 to 80 | 10000 to 40000 | 20 to 80 |  | 
CCNC(=O)c1nn(-c2cc(C)cs2)c2c1CCN(c1ccc3c(c1)C(=O)N(C)CC3)C2=O [Example 2045, N-ethyl-6-(2-methyl-1-oxo-1,2,3,4-tetrahydroisoquinolin-7-yl)-1-(4-methylthiophen-2-yl)-7-oxo-4,5,6,7-tetrahydro-1H-pyrazolo[3,4-c]pyridine-3-carboxamide] | 20 to 80 | 3000 to 10000 | 20 to 80 |  | 
CCNC(=O)c1nn(-c2cccc(Cl)c2)c2c1CCN(c1cccc(N3C(=O)C[C@@H]4C[C@@H]43)c1)C2=O (single isomer, unassigned) [Example 1408, 1-(3-Chlorophenyl)-N-ethyl-7-oxo-6-(3-((1S*,5S*)-3-oxo-2-azabicyclo[3.1.0]hexan-2-yl)phenyl)-4,5,6,7-tetrahydro-1H-pyrazolo[3,4-c]pyridine-3-carboxamide] |  | 300 to 1000 | 20 to 80 | 10000 to 40000 | 
CN1CCc2ccc(N3CCc4c(C(=O)NCC5CCOCC5)nn(-c5cccc(Cl)c5)c4C3=O)cc2C1 [Example 1027, 1-(3-chlorophenyl)-6-(2-methyl-1,2,3,4-tetrahydroisoquinolin-7-yl)-7-oxo-N-((tetrahydro-2H-pyran-4-yl)methyl)-4,5,6,7-tetrahydro-1H-pyrazolo[3,4-c]pyridine-3-carboxamide] |  | 300 to 1000 |  | 3000 to 10000 | > 100000

Results, then the molecule that gave them:

activity at 40 µM [1] [%] | IC50 [2] [nM] | activity at 40 µM [3] [%] | IC50 [1] [nM] | IC50 [3] [nM] | SMILES
20 to 80 | 300 to 1000 | 20 to 80 |  |  | CCNC(=O)c1nn(-c2cccc(Cl)c2)c2c1CCN(c1ccc3c(c1)N(C(C)=O)CC31CC1)C2=O [Example 1429, 6-(1′-acetylspiro[cyclopropane-1,3′-indolin]-6′-yl)-1-(3-chlorophenyl)-N-ethyl-7-oxo-4,5,6,7-tetrahydro-1H-pyrazolo[3,4-c]pyridine-3-carboxamide]
20 to 80 | 10 to 100 | 20 to 80 |  |  | CN1CCc2ccc(N3CCc4c(C(=O)N[C@@H](CO)C5CC5)nn(-c5cccc(Cl)c5F)c4C3=O)cc2C1=O [Example 2043, (R)-1-(3-chloro-2-fluorophenyl)-N-(1-cyclopropyl-2-hydroxyethyl)-6-(2-methyl-1-oxo-1,2,3,4-tetrahydroisoquinolin-7-yl)-7-oxo-4,5,6,7-tetrahydro-1H-pyrazolo[3,4-c]pyridine-3-carboxamide]
20 to 80 | 300 to 1000 | < 20 |  |  | COCCNC(=O)c1nn(-c2cccc(Cl)c2)c2c1CCN(c1ccc3c(c1)C(=O)N(C)CC3)C2=O [Example 1410, 1-(3-chlorophenyl)-N-(2-methoxyethyl)-6-(2-methyl-1-oxo-1,2,3,4-tetrahydroisoquinolin-7-yl)-7-oxo-4,5,6,7-tetrahydro-1H-pyrazolo[3,4-c]pyridine-3-carboxamide]
> 80 | 100 to 300 | > 80 |  |  | CN1CCc2ccc(N3CCc4c(C(=O)NC5COCC56CC6)nn(-c5cccc(Cl)c5)c4C3=O)cc2C1=O (stereo not drawn) [Example 1438, 1-(3-chlorophenyl)-6-(2-methyl-1-oxo-1,2,3,4-tetrahydroisoquinolin-7-yl)-7-oxo-N-(5-oxaspiro[2.4]heptan-7-yl)-4,5,6,7-tetrahydro-1H-pyrazolo[3,4-c]pyridine-3-carboxamide]
 | 100 to 300 |  | 3000 to 10000 | > 100000 | CN1CCc2ccc(N3CCc4c(C(=O)NC5CCCC5)nn(-c5cccc(Cl)c5)c4C3=O)cc2C1 [Example 1044, 1-(3-chlorophenyl)-N-cyclopentyl-6-(2-methyl-1,2,3,4-tetrahydroisoquinolin-7-yl)-7-oxo-4,5,6,7-tetrahydro-1H-pyrazolo[3,4-c]pyridine-3-carboxamide]
 | 10 to 100 |  | > 100000 | > 100000 | COCCN1CCc2ccc(N3CCc4c(C(=O)NCC5CC5)nn(-c5cccc(Cl)c5)c4C3=O)cc2C1 [Example 1037, 1-(3-chlorophenyl)-N-(cyclopropylmethyl)-6-(2-(2-methoxyethyl)-1,2,3,4-tetrahydroisoquinolin-7-yl)-7-oxo-4,5,6,7-tetrahydro-1H-pyrazolo[3,4-c]pyridine-3-carboxamide]
 | 100 to 300 |  | 10000 to 40000 | > 100000 | CC(C)N1CCc2ccc(N3CCc4c(C(=O)NCC5CC5)nn(-c5cccc(Cl)c5)c4C3=O)cc2C1 [Example 1035, 1-(3-chlorophenyl)-N-(cyclopropylmethyl)-6-(2-isopropyl-1,2,3,4-tetrahydroisoquinolin-7-yl)-7-oxo-4,5,6,7-tetrahydro-1H-pyrazolo[3,4-c]pyridine-3-carboxamide]
> 80 | 10 to 100 | 20 to 80 |  |  | Cc1ccc(CNC(=O)c2nn(-c3cccc(Cl)c3F)c3c2CCN(c2ccc4c(c2)C(=O)N(C)CC4)C3=O)cn1 [Example 2044, 1-(3-chloro-2-fluorophenyl)-6-(2-methyl-1-oxo-1,2,3,4-tetrahydroisoquinolin-7-yl)-N-((6-methylpyridin-3-yl)methyl)-7-oxo-4,5,6,7-tetrahydro-1H-pyrazolo[3,4-c]pyridine-3-carboxamide]
20 to 80 | 100 to 300 | 20 to 80 |  |  | CN1CCc2ccc(N3CCc4c(C(=O)N[C@H]5COC[C@H]5O)nn(-c5cccc(Cl)c5)c4C3=O)cc2C1=O [Example 1416, 1-(3-chlorophenyl)-N-((3S,4S)-4-hydroxytetrahydrofuran-3-yl)-6-(2-methyl-1-oxo-1,2,3,4-tetrahydroisoquinolin-7-yl)-7-oxo-4,5,6,7-tetrahydro-1H-pyrazolo[3,4-c]pyridine-3-carboxamide]
20 to 80 | 100 to 300 | 20 to 80 |  |  | Cc1ccc(CNC(=O)c2nn(-c3cccc(Cl)c3)c3c2CCN(c2ccc4c(c2)C(=O)N(CCO)CC4)C3=O)cn1 [Example 1414, 1-(3-chlorophenyl)-6-(2-(2-hydroxyethyl)-1-oxo-1,2,3,4-tetrahydroisoquinolin-7-yl)-N-((6-methylpyridin-3-yl)methyl)-7-oxo-4,5,6,7-tetrahydro-1H-pyrazolo[3,4-c]pyridine-3-carboxamide]
 | 1 to 10 |  | 10000 to 40000 | 1000 to 3000 | Cc1cc(CNC(=O)c2nn(-c3cc(Cl)cc(CN)c3)c3c2CCN(c2ccc4c(c2)C(=O)N(C)CC4)C3=O)nn1C [Example 2017, 1-(3-(Aminomethyl)-5-chlorophenyl)-N-((1,5-dimethyl-1H-pyrazol-3-yl)methyl)-6-(2-methyl-1-oxo-1,2,3,4-tetrahydroisoquinolin-7-yl)-7-oxo-4,5,6,7-tetrahydro-1H-pyrazolo[3,4-c]pyridine-3-carboxamide]
